Reference: article PMC10824666 (Nature Cancer, 2023)
Where two headings read alike, the source gives them in different places.

How the values were obtained:
Test in all cases: biochemical
Design in all cases: Eurofins DiscoverX kinase panel, competitive binding assay at 1 uM, percent of DMSO control
Settings in all cases: competitive binding, percent of DMSO control
MAP3K9 = MAP3K9 (Homo sapiens, UniProt P80192)
How it was run: (§1)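 Competitive binding assay across a 96-kinase panel with KIF18A compounds at 1 µM; values given as percentage of control (POC), single experiment.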

MNK1b = molecular target: T1, MNK1b (Homo sapiens, UniProt Q9BUB5)
T1 construct: gene MKNK1; isoform b
How it was run: as §1

TNIK = TNIK (Homo sapiens, UniProt Q9UKE5)
How it was run: as §1

RPS6KB1 = RPS6KB1 (Homo sapiens, UniProt P23443)
How it was run: as §1

DDR1 = DDR1 (Homo sapiens, UniProt Q08345)
How it was run: as §1

MST2 = molecular target: T2, MST2 (Homo sapiens, UniProt Q13188)
T2 construct: gene STK3
T2 sequence (Q13188 1-491): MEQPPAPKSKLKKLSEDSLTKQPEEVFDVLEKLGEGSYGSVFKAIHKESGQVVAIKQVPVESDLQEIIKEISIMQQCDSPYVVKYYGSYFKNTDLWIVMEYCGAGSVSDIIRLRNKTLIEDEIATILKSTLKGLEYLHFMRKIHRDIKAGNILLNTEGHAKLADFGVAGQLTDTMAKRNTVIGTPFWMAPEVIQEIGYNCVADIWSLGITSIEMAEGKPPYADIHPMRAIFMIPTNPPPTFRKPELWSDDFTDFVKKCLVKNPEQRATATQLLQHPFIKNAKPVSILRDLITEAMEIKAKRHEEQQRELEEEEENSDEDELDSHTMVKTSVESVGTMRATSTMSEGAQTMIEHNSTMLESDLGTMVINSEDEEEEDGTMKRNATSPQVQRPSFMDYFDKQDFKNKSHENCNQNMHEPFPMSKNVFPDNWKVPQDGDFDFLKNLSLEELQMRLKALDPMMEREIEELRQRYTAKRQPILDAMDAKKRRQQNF
How it was run: as §1

CAMK2D = CAMK2D (Homo sapiens, UniProt Q13557)
How it was run: as §1

[1] = read-out: Kinome Profiling performed by Eurofins DiscoverX / AM-1882, 1.0 µM / POC
[2] = read-out: Kinome Profiling performed by Eurofins DiscoverX / AM-0277, 1.0 µM / POC
[3] = read-out: Kinome Profiling performed by Eurofins DiscoverX / AM-5308, 1.0 µM / POC

Chain of TNIK (Q9UKE5 whole entry): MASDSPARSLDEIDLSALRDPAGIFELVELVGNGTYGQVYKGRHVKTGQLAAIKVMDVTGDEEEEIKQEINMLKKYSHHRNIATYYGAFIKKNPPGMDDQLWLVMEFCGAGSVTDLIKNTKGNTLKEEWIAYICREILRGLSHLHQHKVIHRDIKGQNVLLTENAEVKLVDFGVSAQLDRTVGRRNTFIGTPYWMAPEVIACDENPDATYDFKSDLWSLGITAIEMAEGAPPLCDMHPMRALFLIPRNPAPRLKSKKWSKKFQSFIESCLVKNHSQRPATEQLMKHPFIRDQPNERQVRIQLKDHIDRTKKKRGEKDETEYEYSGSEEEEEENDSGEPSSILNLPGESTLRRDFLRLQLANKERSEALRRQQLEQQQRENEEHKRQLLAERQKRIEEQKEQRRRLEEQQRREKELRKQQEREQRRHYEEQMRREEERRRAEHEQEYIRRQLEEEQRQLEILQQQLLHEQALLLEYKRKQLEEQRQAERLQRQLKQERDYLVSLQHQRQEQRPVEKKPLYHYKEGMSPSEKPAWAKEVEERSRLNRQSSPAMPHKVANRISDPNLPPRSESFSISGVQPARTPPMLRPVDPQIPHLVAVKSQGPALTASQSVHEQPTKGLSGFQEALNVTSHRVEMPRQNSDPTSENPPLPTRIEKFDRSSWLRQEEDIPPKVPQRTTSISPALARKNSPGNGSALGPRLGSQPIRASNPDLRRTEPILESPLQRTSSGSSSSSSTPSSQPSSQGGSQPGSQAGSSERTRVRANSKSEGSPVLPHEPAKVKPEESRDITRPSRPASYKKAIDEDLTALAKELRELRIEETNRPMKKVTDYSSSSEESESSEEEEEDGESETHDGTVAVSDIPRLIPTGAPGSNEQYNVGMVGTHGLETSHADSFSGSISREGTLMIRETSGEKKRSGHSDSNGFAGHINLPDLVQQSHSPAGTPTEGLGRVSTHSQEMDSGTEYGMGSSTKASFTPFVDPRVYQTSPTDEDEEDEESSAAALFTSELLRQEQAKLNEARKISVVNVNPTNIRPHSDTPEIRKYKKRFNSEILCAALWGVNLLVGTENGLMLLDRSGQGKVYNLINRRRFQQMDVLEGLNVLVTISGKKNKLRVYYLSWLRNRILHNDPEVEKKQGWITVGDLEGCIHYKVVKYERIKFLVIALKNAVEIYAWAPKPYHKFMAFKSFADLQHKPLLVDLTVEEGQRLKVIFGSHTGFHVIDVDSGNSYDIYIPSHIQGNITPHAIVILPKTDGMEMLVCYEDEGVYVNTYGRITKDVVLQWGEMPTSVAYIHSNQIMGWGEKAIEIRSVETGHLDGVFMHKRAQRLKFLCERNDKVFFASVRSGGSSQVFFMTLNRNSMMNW
Chain of CAMK2D (Q13557 whole entry): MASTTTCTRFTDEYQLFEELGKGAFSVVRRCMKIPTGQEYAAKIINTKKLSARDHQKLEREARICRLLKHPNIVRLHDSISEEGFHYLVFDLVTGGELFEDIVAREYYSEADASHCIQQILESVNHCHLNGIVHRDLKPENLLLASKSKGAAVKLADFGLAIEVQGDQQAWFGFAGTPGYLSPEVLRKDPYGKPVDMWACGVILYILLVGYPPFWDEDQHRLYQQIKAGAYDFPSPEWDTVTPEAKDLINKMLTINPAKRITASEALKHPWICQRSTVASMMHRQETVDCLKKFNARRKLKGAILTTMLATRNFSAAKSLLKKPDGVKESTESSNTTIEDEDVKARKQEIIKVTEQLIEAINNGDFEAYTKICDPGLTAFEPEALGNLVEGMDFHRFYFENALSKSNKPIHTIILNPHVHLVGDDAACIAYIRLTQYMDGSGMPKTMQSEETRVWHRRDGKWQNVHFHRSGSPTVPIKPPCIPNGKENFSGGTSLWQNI
Chain of DDR1 (Q08345 whole entry): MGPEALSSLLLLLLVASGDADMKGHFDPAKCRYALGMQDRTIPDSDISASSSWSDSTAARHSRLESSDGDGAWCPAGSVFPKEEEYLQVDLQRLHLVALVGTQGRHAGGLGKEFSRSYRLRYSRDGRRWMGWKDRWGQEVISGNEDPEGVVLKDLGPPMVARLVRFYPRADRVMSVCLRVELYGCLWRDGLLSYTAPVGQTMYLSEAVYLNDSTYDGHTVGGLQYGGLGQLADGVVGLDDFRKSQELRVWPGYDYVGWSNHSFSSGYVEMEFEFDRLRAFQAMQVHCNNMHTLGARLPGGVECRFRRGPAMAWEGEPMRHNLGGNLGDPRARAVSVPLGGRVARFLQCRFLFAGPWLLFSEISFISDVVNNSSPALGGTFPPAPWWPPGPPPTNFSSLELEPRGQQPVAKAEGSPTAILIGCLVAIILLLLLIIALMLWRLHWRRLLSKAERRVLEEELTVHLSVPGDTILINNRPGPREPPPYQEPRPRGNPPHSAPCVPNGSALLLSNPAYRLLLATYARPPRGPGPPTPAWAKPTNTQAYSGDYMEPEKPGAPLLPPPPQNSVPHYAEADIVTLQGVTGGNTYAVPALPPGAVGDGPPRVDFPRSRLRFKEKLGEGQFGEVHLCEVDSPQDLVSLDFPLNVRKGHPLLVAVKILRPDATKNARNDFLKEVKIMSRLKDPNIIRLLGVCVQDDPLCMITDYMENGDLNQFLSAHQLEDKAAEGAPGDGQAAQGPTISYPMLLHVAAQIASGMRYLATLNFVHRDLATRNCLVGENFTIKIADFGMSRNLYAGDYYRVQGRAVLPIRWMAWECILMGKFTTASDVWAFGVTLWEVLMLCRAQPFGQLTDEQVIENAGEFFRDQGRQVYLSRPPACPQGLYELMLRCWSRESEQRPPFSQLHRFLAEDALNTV
Chain of RPS6KB1 (P23443 whole entry): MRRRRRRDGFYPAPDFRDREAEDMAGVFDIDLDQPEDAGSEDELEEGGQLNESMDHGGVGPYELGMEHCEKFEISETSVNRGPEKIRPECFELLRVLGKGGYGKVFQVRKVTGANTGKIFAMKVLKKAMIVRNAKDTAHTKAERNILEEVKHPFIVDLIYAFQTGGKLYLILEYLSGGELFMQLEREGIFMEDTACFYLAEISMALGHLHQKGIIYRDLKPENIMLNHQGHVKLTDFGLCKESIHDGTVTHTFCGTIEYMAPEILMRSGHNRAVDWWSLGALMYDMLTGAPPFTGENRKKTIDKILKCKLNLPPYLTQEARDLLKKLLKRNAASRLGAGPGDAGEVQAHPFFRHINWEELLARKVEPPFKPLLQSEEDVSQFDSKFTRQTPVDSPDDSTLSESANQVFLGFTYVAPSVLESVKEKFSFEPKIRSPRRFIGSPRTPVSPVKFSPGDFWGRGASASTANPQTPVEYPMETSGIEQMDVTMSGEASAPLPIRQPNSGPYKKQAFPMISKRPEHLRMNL
T1 sequence (Q9BUB5 whole entry, canonical isoform): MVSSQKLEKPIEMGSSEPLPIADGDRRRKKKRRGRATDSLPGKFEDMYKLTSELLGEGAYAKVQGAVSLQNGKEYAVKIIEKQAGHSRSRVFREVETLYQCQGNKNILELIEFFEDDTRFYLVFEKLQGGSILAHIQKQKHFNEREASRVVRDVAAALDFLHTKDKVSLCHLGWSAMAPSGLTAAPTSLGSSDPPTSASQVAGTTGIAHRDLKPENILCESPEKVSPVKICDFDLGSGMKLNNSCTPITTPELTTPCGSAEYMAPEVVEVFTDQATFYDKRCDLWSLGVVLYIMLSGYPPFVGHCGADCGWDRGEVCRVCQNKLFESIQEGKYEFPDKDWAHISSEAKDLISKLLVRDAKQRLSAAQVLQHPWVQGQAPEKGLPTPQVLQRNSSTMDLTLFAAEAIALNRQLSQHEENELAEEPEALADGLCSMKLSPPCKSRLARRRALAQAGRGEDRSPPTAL
Chain of MAP3K9 (P80192 whole entry): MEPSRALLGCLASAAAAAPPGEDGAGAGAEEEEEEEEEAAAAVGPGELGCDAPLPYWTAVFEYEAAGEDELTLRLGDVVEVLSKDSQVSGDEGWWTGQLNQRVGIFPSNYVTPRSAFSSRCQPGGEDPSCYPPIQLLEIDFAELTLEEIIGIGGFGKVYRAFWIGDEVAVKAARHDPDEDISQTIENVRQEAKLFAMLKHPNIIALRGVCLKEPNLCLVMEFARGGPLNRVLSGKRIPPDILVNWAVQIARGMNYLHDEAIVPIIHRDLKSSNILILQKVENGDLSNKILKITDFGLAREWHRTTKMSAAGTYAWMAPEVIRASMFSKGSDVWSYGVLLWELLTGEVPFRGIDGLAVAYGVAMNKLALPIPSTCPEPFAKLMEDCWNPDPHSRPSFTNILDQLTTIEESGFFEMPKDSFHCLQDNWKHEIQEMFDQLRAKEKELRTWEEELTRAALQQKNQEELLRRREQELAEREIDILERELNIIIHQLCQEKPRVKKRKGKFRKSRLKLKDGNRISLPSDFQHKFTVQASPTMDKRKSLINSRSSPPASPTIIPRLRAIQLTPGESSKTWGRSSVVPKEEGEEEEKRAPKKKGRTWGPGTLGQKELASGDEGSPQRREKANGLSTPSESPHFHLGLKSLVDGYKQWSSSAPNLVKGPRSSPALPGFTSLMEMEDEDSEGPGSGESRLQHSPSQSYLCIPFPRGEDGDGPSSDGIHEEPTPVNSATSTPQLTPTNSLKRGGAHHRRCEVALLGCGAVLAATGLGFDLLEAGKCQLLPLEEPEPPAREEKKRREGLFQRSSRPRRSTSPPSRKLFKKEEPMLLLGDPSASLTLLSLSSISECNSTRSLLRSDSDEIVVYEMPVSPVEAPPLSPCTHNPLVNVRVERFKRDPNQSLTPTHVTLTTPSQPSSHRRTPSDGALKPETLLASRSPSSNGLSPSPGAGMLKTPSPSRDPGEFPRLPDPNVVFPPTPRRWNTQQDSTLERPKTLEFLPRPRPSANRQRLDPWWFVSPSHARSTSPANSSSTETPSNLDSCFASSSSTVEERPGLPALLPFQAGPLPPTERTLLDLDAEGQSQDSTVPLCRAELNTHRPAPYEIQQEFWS

CC(C)(C)NS(=O)(=O)c1cccc(NC(=O)c2ccc(S(=O)(=O)NC(C)(C)C)cc2N2CCC3(CC2)CC3)c1 [AM-1882]
remaining activity at 1 µM (MAP3K9; [1]): 100%
remaining activity at 1 µM (MNK1b; [1]): 100%
remaining activity at 1 µM (TNIK; [1]): 82%
remaining activity at 1 µM (RPS6KB1; [1]): 61%
remaining activity at 1 µM (DDR1; [1]): 97%
remaining activity at 1 µM (MST2; [1]): 91.5%
remaining activity at 1 µM (CAMK2D; [1]): 100%

CC(C)(CO)Nc1ccc(C(=O)Nc2cccc(S(=O)(=O)C3CCCC3)c2)c(N2CCC3(CC2)CC3)n1 [AM-0277]
remaining activity at 1 µM (MAP3K9; [2]): 100%
remaining activity at 1 µM (MNK1b; [2]): 100%
remaining activity at 1 µM (TNIK; [2]): 88%
remaining activity at 1 µM (RPS6KB1; [2]): 100%
remaining activity at 1 µM (DDR1; [2]): 95%
remaining activity at 1 µM (MST2; [2]): 49%
remaining activity at 1 µM (CAMK2D; [2]): 91%

C[C@@H]1CN(c2cccc(NC(=O)c3ccc(NS(=O)(=O)CCO)cc3N3CCC4(CC3)CC4)n2)CCO1 [AM-5308]
remaining activity at 1 µM (MAP3K9; [3]): 95%
remaining activity at 1 µM (MNK1b; [3]): 96.5%
remaining activity at 1 µM (TNIK; [3]): 52.5%
remaining activity at 1 µM (RPS6KB1; [3]): 94.5%
remaining activity at 1 µM (DDR1; [3]): 100%
remaining activity at 1 µM (MST2; [3]): 86.5%
remaining activity at 1 µM (CAMK2D; [3]): 58.5%
